The values below come from ChEMBL document CHEMBL5038601, “Carbohydrate-Based NK1R Antagonists with Broad-Spectrum Anticancer Activity” (J Med Chem, 2021).

For assay [1], the system named is A549. As to the kind of experiment: Inhibition of glycolysis in human A549 cells assessed as reduction in lactate production incubated for 8 hrs by colorimetric-oxidase mediator analysis. The assay is classed as functional, cell-based.
In assay [2] the test system is A549. As to the kind of experiment: Inhibition of glycolysis in human A549 cells assessed as reduction in glucose consumption incubated for 8 hrs by colorimetric-oxidase mediator analysis. In kind it is functional, cell-based.

Molecules are shown by their SMILES. Activity calls are given as the source filed them. No cut-off for these calls is given here.

As to `O=C(O)C(Cl)Cl`, the inhibition entry in the assay on A549 [1] and in the assay with A549 [2] was “Active” each time.
